From US20250206730A1 (AUTOTELIC BIO INC., priority 2022, published 2025) come the findings set out here.

Some results are limits rather than exact numbers.

The test system of the assay is TGF-β signaling. As to the kind of experiment: Assay for evaluating cellular inhibition of TGF-β signaling, 4T1 (SBE-luc2P) luciferase reporter. It is filed as cell-based. The note with it: Mus musculus, 4T1, 4T1 (SBE-luc2P) transient pool, 0.2% FBS, 2 h pre-treatment, TGF-β1 2 ng/mL 24 h; read-out: IC50 4T1 Cell. The procedure: [Example 2] Assay for Evaluating Cellular Inhibition of TGF-β Signaling
4T1 (SBE-luc2P) transient pool that have SBE-luc2P (hygro) expression plasmid or HEK293 (SBE reporter) stable cells (BPS bioscience) were seeded at 6×10^3 cells/well or 2.5×10^4 cells/well in 96-well plate, respectively. 4T1 (SBE-luc2P) transient pool were pre-treated with novel compound synthesized in Example 1 above in 0.2% FBS at approximately 60% confluence at 37° C. in 5% CO2. Also, HEK293 (SBE reporter) stable cells were pre-treated with each test compounds of formula in 0.5% FBS at approximately 80% confluence at 37° C. in 5% CO2. After 2 hours, cells were treated with TGF-β1 (2 ng/mL) for 24 h at 37° C. in 5% CO2. Cell lysates were prepared using Luciferase Assay (Promega) according to the manufacturer's instruction, and luminescence was measured by a plate reader, Biotek Synergy H1 (Vermont, USA).
On the technique in general: Reporter assays use an easily measured gene product as a stand-in for the process of interest.

A word on the IC50: it is the concentration that gives 50% inhibition.

In the case of `COCCN1CCN(c2ccc(Nc3cc(Oc4sc(C)nc4-c4ccccc4)ccn3)cc2)CC1` [A-108, N-(4-(4-(2-Methoxyethyl)piperazin-1-yl)phenyl)-4-((2-methyl-4-phenylthiazol-5-yl)oxy)pyridin-2-amine], the IC50 was less than 100 nM.

Take `COC(=O)c1cccc(Nc2cc(Oc3sc(C4CC4)nc3-c3ccccc3)ccn2)n1` [A-131, Methyl 6-((4-((2-cyclopropyl-4-phenylthiazol-5-yl)oxy)pyridin-2-yl)amino)picolinate]: the IC50 is greater than 100 nM.

For the molecule `Cc1nc(-c2ccccc2)c(Oc2ccnc(Nc3ccnc(F)c3)c2)s1` [A-87, N-(2-Fluoropyridin-4-yl)-4-((2-methyl-4-phenylthiazol-5-yl)oxy)pyridin-2-amine], the IC50 is greater than 100 nM.

With `NC(=O)c1ccnc(Nc2cc(Oc3sc(N)nc3-c3ccccc3)ccn2)c1` [A-22, 2-((4-((2-Amino-4-phenylthiazol-5-yl)oxy)pyridin-2-yl)amino)isonicotinamide], the IC50 was less than 100 nM.

On to `CS(=O)(=O)Cc1cccc(Nc2cc(Oc3sc(N)nc3-c3ccccc3)ccn2)c1` [A-19, 5-((2-((3-((Methylsulfonyl)methyl)phenyl)amino)pyridin-4-yl)oxy)-4-phenylthiazol-2-amine], for which the IC50 was less than 100 nM.

Consider `Nc1nc(-c2ccccc2)c(Oc2ccnc(Nc3cccc(NS(=O)(=O)C4CC4)c3)c2)s1` [A-16, N-(3-((4-((2-Amino-4-phenylthiazol-5-yl)oxy)pyridin-2-yl)amino)phenyl)cyclopropanesulfonamide], for which the IC50 is less than 100 nM.

For `NC(=O)c1cncc(Nc2cc(Oc3sc(N)nc3-c3ccccc3)ccn2)c1` [A-32, 5-((4-((2-Amino-4-phenylthiazol-5-yl)oxy)pyridin-2-yl)amino)nicotinamide], the IC50 is greater than 100 nM.

Take `Cc1nc(-c2ccccc2)c(Oc2ccnc(NCc3ccccc3)c2)s1` [A-94, N-Benzyl-4-((2-methyl-4-phenylthiazol-5-yl)oxy)pyridin-2-amine]: the IC50 is greater than 100 nM.

Consider `COC(=O)c1cccc(Nc2cc(Oc3sc(N(C)C)nc3-c3ccccc3)ccn2)n1` [A-162, Methyl 6-((4-((2-(dimethylamino)-4-phenylthiazol-5-yl)oxy)pyridin-2-yl)amino)picolinate], for which the IC50 is less than 100 nM.

Consider `CS(=O)(=O)n1cc(Nc2cc(Oc3sc(N)nc3-c3ccccc3)ccn2)cn1` [A-62, 5-((2-((1-(Methylsulfonyl)-1H-pyrazol-4-yl)amino)pyridin-4-yl)oxy)-4-phenylthiazol-2-amine], for which the IC50 is greater than 100 nM.

On to `Nc1nc(-c2ccccc2)c(Oc2ccnc(Nc3ccc(F)nc3)c2)s1` [A-7, 5-((2-((6-Fluoropyridin-3-yl)amino)pyridin-4-yl)oxy)-4-phenylthiazol-2-amine], for which the IC50 was greater than 100 nM.

On to `Cc1nc(-c2ccccc2)c(Oc2ccnc(Nc3ccnc(Cl)c3)c2)s1` [A-89, N-(2-Chloropyridin-4-yl)-4-((2-methyl-4-phenylthiazol-5-yl)oxy)pyridin-2-amine], for which the IC50 is less than 100 nM.

With `O=S(=O)(Nc1cccc(Nc2cc(Oc3sc(C4CC4)nc3-c3ccccc3)ccn2)c1)C(F)(F)F` [A-123, N-(3-((4-((2-Cyclopropyl-4-phenylthiazol-5-yl)oxy)pyridin-2-yl)amino)phenyl)-1,1,1-trifluoromethanesulfonamide], the half-inhibitory concentration (IC50) is less than 100 nM.

Take `Cc1nc(-c2ccccc2)c(Oc2ccnc(Nc3cnn(S(=O)(=O)C4CC4)c3)c2)s1` [A-98, N-(1-(Cyclopropylsulfonyl)-1H-pyrazol-4-yl)-4-((2-methyl-4-phenylthiazol-5-yl)oxy)pyridin-2-amine]: the IC50 was greater than 100 nM.

As for `CS(=O)(=O)c1cccc(Nc2cc(Oc3sc(N)nc3-c3ccccc3)ccn2)c1` [A-15, 5-((2-((3-(Methylsulfonyl)phenyl)amino)pyridin-4-yl)oxy)-4-phenylthiazol-2-amine], the IC50 is less than 100 nM.

Take `Nc1nc(-c2ccccc2)c(Oc2ccnc(Nc3ccncc3)c2)s1` [A-8, 4-Phenyl-5-((2-(pyridin-4-ylamino)pyridin-4-yl)oxy)thiazol-2-amine]: the IC50 was greater than 100 nM.

Turning to `CNS(=O)(=O)c1cccc(Nc2cc(Oc3sc(C)nc3-c3ccccc3)ccn2)c1` [A-73, N-Methyl-3-((4-((2-methyl-4-phenylthiazol-5-yl)oxy)pyridin-2-yl)amino)benzenesulfonamide], the IC50 is less than 100 nM.

In the case of `CCS(=O)(=O)c1cccc(Nc2cc(Oc3sc(C)nc3-c3ccccc3)ccn2)c1` [A-77, N-(3-(Ethylsulfonyl)phenyl)-4-((2-methyl-4-phenylthiazol-5-yl)oxy)pyridin-2-amine], the IC50 was less than 100 nM.

As to `Cc1nc(-c2ccccc2)c(Oc2ccnc(NCc3ccc(F)cc3)c2)s1` [A-95, N-(4-Fluorobenzyl)-4-((2-methyl-4-phenylthiazol-5-yl)oxy)pyridin-2-amine], the IC50 is greater than 100 nM.

For `Nc1nc(-c2ccccc2)c(Oc2ccnc(NCc3cccnc3)c2)s1` [A-28, 4-Phenyl-5-((2-((pyridin-3-ylmethyl)amino)pyridin-4-yl)oxy)thiazol-2-amine], the IC50 is greater than 100 nM.

For the molecule `CNC(=O)c1cccc(Nc2cc(Oc3sc(N)nc3-c3ccccc3)ccn2)c1` [A-23, 3-((4-((2-Amino-4-phenylthiazol-5-yl)oxy)pyridin-2-yl)amino)-N-methylbenzamide], the IC50 was less than 100 nM.

Consider `Cc1nc(-c2ccccc2)c(Oc2ccnc(Nc3cccc(C(N)=O)n3)c2)s1` [A-101, 6-((4-((2-Methyl-4-phenylthiazol-5-yl)oxy)pyridin-2-yl)amino)picolinamide], for which the IC50 was less than 100 nM.

Regarding `Cn1cc(Nc2cc(Oc3sc(N)nc3-c3ccccc3)ccn2)cn1` [A-37, 5-((2-((1-Methyl-1H-pyrazol-4-yl)amino)pyridin-4-yl)oxy)-4-phenylthiazol-2-amine], the IC50 is greater than 100 nM.

For the molecule `Cc1nc(-c2ccccc2)c(Oc2ccnc(Nc3cnn(S(C)(=O)=O)c3)c2)s1` [A-97, 4-((2-Methyl-4-phenylthiazol-5-yl)oxy)-N-(1-(methylsulfonyl)-1H-pyrazol-4-yl)pyridin-2-amine], the IC50 is greater than 100 nM.

Regarding `Cc1cccc(-c2nc(C)sc2Oc2ccnc(Nc3cccc(Cc4nnn[nH]4)c3)c2)n1` [A-305, N-(3-((1H-Tetrazol-5-yl)methyl)phenyl)-4-((2-methyl-4-(6-methylpyridin-2-yl)thiazol-5-yl)oxy)pyridin-2-amine], the IC50 is greater than 100 nM.

For the molecule `NC(=O)c1ccc(Nc2cc(Oc3sc(N)nc3-c3ccccc3)ccn2)cn1` [A-11, 5-((4-((2-Amino-4-phenylthiazol-5-yl)oxy)pyridin-2-yl)amino)picolinamide], the IC50 is greater than 100 nM.

Take `Cc1nc(-c2ccccc2)c(Oc2ccnc(Nc3cnn(C)c3)c2)s1` [A-99, N-(1-Methyl-1H-pyrazol-4-yl)-4-((2-methyl-4-phenylthiazol-5-yl)oxy)pyridin-2-amine]: the IC50 was less than 100 nM.

For `Nc1nc(-c2ccccc2)c(Oc2ccnc(Nc3cccc(S(=O)(=O)C(F)(F)F)c3)c2)s1` [A-17, 4-Phenyl-5-((2-((3-((trifluoromethyl)sulfonyl)phenyl)amino)pyridin-4-yl)oxy)thiazol-2-amine], the IC50 was greater than 100 nM.

Regarding `NC(=O)c1cccc(Nc2cc(Oc3sc(N)nc3-c3ccccc3)ccn2)n1` [A-33, 6-((4-((2-Amino-4-phenylthiazol-5-yl)oxy)pyridin-2-yl)amino)picolinamide], the IC50 was less than 100 nM.

`Cc1nc(-c2ccccc2)c(Oc2ccnc(Nc3cccc(NS(=O)(=O)C4CC4)c3)c2)s1` [A-75, N-(3-((4-((2-Methyl-4-phenylthiazol-5-yl)oxy)pyridin-2-yl)amino)phenyl)cyclopropanesulfonamide]: the IC50 is less than 100 nM.

Regarding `Nc1nc(-c2ccccc2)c(Oc2ccnc(Nc3cn[nH]c3)c2)s1` [A-38, 5-((2-((1H-Pyrazol-4-yl)amino)pyridin-4-yl)oxy)-4-phenylthiazol-2-amine], the half-inhibitory concentration (IC50) is greater than 100 nM.

For `CCS(=O)(=O)c1cccc(Nc2cc(Oc3sc(N)nc3-c3ccccc3)ccn2)c1` [A-34, 5-((2-((3-(Ethylsulfonyl)phenyl)amino)pyridin-4-yl)oxy)-4-phenylthiazol-2-amine], the IC50 was less than 100 nM.

For the molecule `Nc1nc(-c2ccccc2)c(Oc2ccnc(NCc3ccccc3)c2)s1` [A-25, 5-((2-(Benzylamino)pyridin-4-yl)oxy)-4-phenylthiazol-2-amine], the IC50 is greater than 100 nM.
